Like-named read-outs stand apart in the source and are kept apart here. Values belong to the compound of their own block, whether it stands above or below them.
Key:
CDK2/CCNE1 = CDK2/CCNE1 (Homo sapiens, UniProt P24941); assay: CDK2 homogeneous time-resolved fluorescence (HTRF) kinase assay; type: biochemical; conditions: CDK2/CCNE
Protocol: (§1) A CDK homogeneous time-resolved fluorescence (HTRF) assay was used to assess the potency of the compounds described herein.
(§2) To an untreated 384-well microtiter plate (ProxiPlate) was added 100 nL 100×test compound in DMSO and 5 μL 2×CDK enzyme in assay buffer (50 mM HEPES, 1 mM EGTA, 10 mM MgCl2, 0.01% Tween 20, 2 mM DTT). The plate was centrifuged at 800 RPM for 1 min then incubated for 20 min at 23 °C. 2.5 μL per well of 4×ATP and 2.5 μL 4×ULight™-eIF4E-binding protein 1 (Thr37/46) Peptide substrate were added to all wells. After addition, the plates were centrifuged at 800 RPM for 1 min. The plates were incubated at 23 °C for 60 min. 5 μL per well 4×EDTA solution were added to each well to stop the reaction. 5 μL 4×LANCE Ultra Europium-anti-phospho-eIF4E-binding protein 1 (Thr37/46) antibody were added to each well and the plate was centrifuged for 1 min at 800 RPM. The plate was incubated for 60 min at 23 °C. Fluorescence was read at 340 nm excitation and 665 nm emission on an En Vision 2105 fluorescence reader. The final concentrations of reagents in the activity assay were 3 nM CDK2/CCNE1, 1 mM ATP, 50 nM ULight™-eIF4E-binding protein 1 (Thr37/46) Peptide substrate, 1% DMSO, 10 mM EDTA, and 2 nM LANCE Ultra Europium-anti-phospho-eIF4E-binding protein 1 (Thr37/46).
(§3) Dose-response titrations were conducted by using an 11-point, half-logarithmic serial dilution scheme typically starting at 10 μM. Signals were reported as fluorescence units at 665 nm or the ratio of fluorescence units at 665 nm/fluorescence units at 615 nm. Signals are referred to below as “Lance signals”.
(§4) Using this assay, the IC50 values of example compounds were determined. Table 3 illustrates the IC50 for various Example compounds of Formula IA. Table 4 illustrates the IC50 for various other Example compounds of Formula I. ND=not determined.

CDK1/CCNB1 = CDK1/CCNB1 (Homo sapiens, UniProt P06493); assay: CDK1 homogeneous time-resolved fluorescence (HTRF) kinase assay; type: biochemical; conditions: CDK1/CCNB
Protocol: as §1
as §2, with “were 0.5” for “were 3”, “nM CDK1/CCNB1,” for “nM CDK2/CCNE1,”
as §3, §4

[1] = 25-250 nM marked x, read-out: CDK2/CCNE IC50 25-250 nM
[2] = <25 nM, read-out: CDK2/CCNE IC50 <25 nM
[3] = 25-250 nM marked x, read-out: CDK1/CCNB IC50 25-250 nM
[4] = <25 nM, read-out: CDK2/CCNE IC50, <25 nM

Chain of CDK1/CCNB1 (P06493 whole entry): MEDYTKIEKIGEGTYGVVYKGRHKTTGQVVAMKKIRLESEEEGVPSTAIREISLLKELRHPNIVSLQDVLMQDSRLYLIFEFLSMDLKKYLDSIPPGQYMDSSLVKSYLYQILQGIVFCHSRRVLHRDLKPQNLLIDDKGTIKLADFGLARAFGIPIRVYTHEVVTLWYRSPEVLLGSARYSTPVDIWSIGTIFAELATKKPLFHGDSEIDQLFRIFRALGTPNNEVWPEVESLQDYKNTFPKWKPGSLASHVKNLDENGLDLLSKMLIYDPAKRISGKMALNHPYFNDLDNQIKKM
Chain of CDK1/CCNB1 (P14635 whole entry partner): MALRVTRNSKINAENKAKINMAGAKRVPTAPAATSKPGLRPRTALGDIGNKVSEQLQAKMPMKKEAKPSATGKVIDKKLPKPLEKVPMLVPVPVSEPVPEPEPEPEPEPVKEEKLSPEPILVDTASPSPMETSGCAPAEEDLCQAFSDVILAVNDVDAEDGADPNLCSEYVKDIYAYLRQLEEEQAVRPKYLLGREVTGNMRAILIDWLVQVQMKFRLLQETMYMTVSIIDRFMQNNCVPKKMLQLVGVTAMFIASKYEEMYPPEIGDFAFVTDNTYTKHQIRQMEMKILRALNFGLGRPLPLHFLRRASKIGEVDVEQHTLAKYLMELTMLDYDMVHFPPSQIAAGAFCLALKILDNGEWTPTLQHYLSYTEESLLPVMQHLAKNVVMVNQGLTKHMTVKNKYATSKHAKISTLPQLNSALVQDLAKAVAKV

Structure (SMILES): CCC1(CC)C(=O)Nc2cc(C#Cc3nccc4cnc(Nc5ccc(S(=N)(=O)C6CCC6)cc5OC)cc34)ccc21 (single isomer, unassigned) [Ex 272, 6-((7-((4-(cyclobutanesulfonimidoyl)-2-methoxyphenyl)amino)-2,6-naphthyridin-1-yl)ethynyl)-3,3-diethylindolin-2-one]
IC50 (CDK2/CCNE1; [1]): 25 to 250 nM

Structure (SMILES): CCS(=N)(=O)c1ccc(Nc2cc3c(C#Cc4ccc5c(c4)NC(=O)C54CC4)nccc3cn2)cc1 (racemic) [Ex 377, 6'-((7-((4-(ethylsulfonimidoyl)phenyl)amino)-2,6-naphthyridin-1-yl)ethynyl)spiro[cyclopropane-1,3'-indolin]-2'-one]
IC50 (CDK2/CCNE1; x = IC50 <25 nM, read-out: CDK2/CCNE IC50 (<25 nM)): < 25 nM

Structure (SMILES): CCC1(CC)C(=O)Nc2cc(C#Cc3nccc4cnc(Nc5ccc(S(=N)(=O)C6CC6)cc5OC)cc34)ccc21 (single isomer, unassigned) [Ex 300, 6-((7-((4-(cyclopropanesulfonimidoyl)-2-methoxyphenyl)amino)-2,6-naphthyridin-1-yl)ethynyl)-3,3-diethylindolin-2-one]
IC50 (CDK2/CCNE1; [2]): < 25 nM

Structure (SMILES): CCC1(CC)C(=O)Nc2cc(C#Cc3nccc4cnc(Nc5ccc(S(=N)(=O)C(C)C)cc5OC)cc34)ccc21 (single isomer, unassigned) [Ex 341, 3,3-diethyl-6-((7-((2-methoxy-4-(propan-2-ylsulfonimidoyl)phenyl)amino)-2,6-naphthyridin-1-yl)ethynyl)indolin-2-one]
IC50 (CDK2/CCNE1; [1]): 25 to 250 nM

Structure (SMILES): CC(=O)N1CCN(c2nccc3cnc(NC4CCN(S(C)(=O)=O)CC4)cc23)CC1 [Ex 58, 1-(4-(7-((1-(methylsulfonyl)piperidin-4-yl)amino)-2,6-naphthyridin-1-yl)piperazin-1-yl)ethan-1-one]
IC50 (CDK2/CCNE1; [1]): 25 to 250 nM

Structure (SMILES): CCC1(CC)C(=O)Nc2cc(C#Cc3nccc4cnc(Nc5ccc(S(C)(=N)=O)cc5C(F)F)cc34)ccc21 (single isomer, unassigned) [Ex 295, 6-((7-((2-(difluoromethyl)-4-(S-methylsulfonimidoyl)phenyl)amino)-2,6-naphthyridin-1-yl)ethynyl)-3,3-diethylindolin-2-one]
IC50 (CDK2/CCNE1; [2]): < 25 nM

Structure (SMILES): CCC1(CC)C(=O)Nc2cc(C#Cc3nccc4cnc(Nc5ccc(S(C)(=N)=O)cc5OC)cc34)ccc21 (single isomer, unassigned) [Ex 320, 3,3-diethyl-6-((7-((2-methoxy-4-(S-methylsulfonimidoyl)phenyl)amino)-2,6-naphthyridin-1-yl)ethynyl)indolin-2-one]
IC50 (CDK2/CCNE1; [2]): < 25 nM

Structure (SMILES): Cc1c(-c2nccc3cnc(Nc4ccc(S(=N)(=O)NC5CCC5)cc4)cc23)ccc2c1cnn2CC(O)(C(F)(F)F)C(F)(F)F (single isomer, unassigned) [Ex 690, N-cyclobutyl-4-((5-(4-methyl-1-(3,3,3-trifluoro-2-hydroxy-2-(trifluoromethyl)propyl)-1H-indazol-5-yl)-2,6-naphthyridin-3-yl)amino)benzenesulfonimidamide]
IC50 (CDK2/CCNE1; [4]): < 25 nM

Structure (SMILES): COC(=O)c1ccc(Nc2cc3c(C4=CCCCC4)nccc3cn2)cc1 [Ex 101, methyl 4-((5-(cyclohex-1-en-1-yl)-2,6-naphthyridin-3-yl)amino)benzoate]
IC50 (CDK2/CCNE1; [1]): 25 to 250 nM

Structure (SMILES): COc1cc(S(=N)(=O)C2COC2)ccc1Nc1cc2c(C#Cc3ccc4c(c3)NC(=O)C43CC3)nccc2cn1 (single isomer, unassigned) [Ex 324, 6'-((7-((2-methoxy-4-(oxetane-3-sulfonimidoyl)phenyl)amino)-2,6-naphthyridin-1-yl)ethynyl)spiro[cyclopropane-1,3'-indolin]-2'-one]
IC50 (CDK1/CCNB1; [3]): 25 to 250 nM

Structure (SMILES): O=C(Oc1ccc(F)cc1)c1ccc(Nc2cc3c(C4=CCCCC4)nccc3cn2)cc1 [Ex 254, 4-fluorophenyl 4-((5-(cyclohex-1-en-1-yl)-2,6-naphthyridin-3-yl)amino)benzoate]
IC50 (CDK2/CCNE1; [1]): 25 to 250 nM

Structure (SMILES): CNC(=O)C1CCCN(c2nccc3cnc(NC4CCN(S(C)(=O)=O)CC4)cc23)C1 (single isomer, unassigned) [Ex 31, N-methyl-1-(7-((1-(methylsulfonyl)piperidin-4-yl)amino)-2,6-naphthyridin-1-yl)piperidine-3-carboxamide]
IC50 (CDK2/CCNE1; [1]): 25 to 250 nM

Structure (SMILES): CCC1(CC)C(=O)Nc2cc(C#Cc3nccc4cnc(Nc5ccc(S(=N)(=O)C6COC6)cc5OC)cc34)ccc21 (single isomer, unassigned) [Ex 318, 3,3-diethyl-6-((7-((2-methoxy-4-(oxetane-3-sulfonimidoyl)phenyl)amino)-2,6-naphthyridin-1-yl)ethynyl)indolin-2-one]
IC50 (CDK2/CCNE1; [2]): < 25 nM

Structure (SMILES): CCC1(CC)C(=O)Nc2cc(C#Cc3nccc4cnc(Nc5ccc(S(=N)(=O)C6CC(F)(F)C6)cc5F)cc34)ccc21 (single isomer, unassigned) [Ex 302, 6-((7-((4-(3,3-difluorocyclobutane-1-sulfonimidoyl)-2-fluorophenyl)amino)-2,6-naphthyridin-1-yl)ethynyl)-3,3-diethylindolin-2-one]
IC50 (CDK2/CCNE1; [1]): 25 to 250 nM

Structure (SMILES): COc1cc(S(C)(=N)=O)ccc1Nc1cc2c(C#Cc3ccc4c(c3)NC(=O)C43CCC3)nccc2cn1 (single isomer, unassigned) [Ex 314, 6'-((7-((2-methoxy-4-(S-methylsulfonimidoyl)phenyl)amino)-2,6-naphthyridin-1-yl)ethynyl)spiro[cyclobutane-1,3'-indolin]-2'-one]
IC50 (CDK2/CCNE1; [2]): < 25 nM

Further lines, results first:

IC50 (CDK1/CCNB1; x = IC50 >250 nM, read-out: CDK1/CCNB IC50 (>250 nM column)): > 250 nM
Structure (SMILES): CCC1(CC)C(=O)Nc2cc(C#Cc3nccc4cnc(Nc5ccc(S(=N)(=O)CC)cc5)cc34)ccc21 (single isomer, unassigned) [Ex 428, 3,3-diethyl-6-((7-((4-(ethylsulfonimidoyl)phenyl)amino)-2,6-naphthyridin-1-yl)ethynyl)indolin-2-one]

IC50 (CDK1/CCNB1; [3]): 25 to 250 nM
Structure (SMILES): N=S(=O)(c1ccc(Nc2cc3c(C#Cc4ccc5c(c4)NC(=O)C54CC4)nccc3cn2)c(F)c1)C1COC1 (single isomer, unassigned) [Ex 276, 6'-((7-((2-fluoro-4-(oxetane-3-sulfonimidoyl)phenyl)amino)-2,6-naphthyridin-1-yl)ethynyl)spiro[cyclopropane-1,3'-indolin]-2'-one]

IC50 (CDK2/CCNE1; [2]): < 25 nM
Structure (SMILES): CCC1(CC)C(=O)Nc2cc(C#Cc3nccc4cnc(Nc5ccc(S(=N)(=O)CC)cc5OC)cc34)ccc21 (single isomer, unassigned) [Ex 309, 3,3-diethyl-6-((7-((4-(ethylsulfonimidoyl)-2-methoxyphenyl)amino)-2,6-naphthyridin-1-yl)ethynyl)indolin-2-one]

IC50 (CDK2/CCNE1; [1]): 25 to 250 nM
Structure (SMILES): CS(=O)(=O)N1CCC(Nc2cc3c(N4CCOCC4)nccc3cn2)CC1 [Ex 30, N-(1-(methylsulfonyl)piperidin-4-yl)-5-morpholino-2,6-naphthyridin-3-amine]

IC50 (CDK2/CCNE1; [4]): < 25 nM
Structure (SMILES): Cc1c(-c2nccc3cnc(Nc4ccc(S(=N)(=O)Nc5ccccc5)cc4)cc23)ccc2c1cnn2CC(O)(C(F)(F)F)C(F)(F)F (single isomer, unassigned) [Ex 693, 4-((5-(4-methyl-1-(3,3,3-trifluoro-2-hydroxy-2-(trifluoromethyl)propyl)-1H-indazol-5-yl)-2,6-naphthyridin-3-yl)amino)-N-phenylbenzenesulfonimidamide]

IC50 (CDK2/CCNE1; [1]): 25 to 250 nM
Structure (SMILES): CS(=O)(=O)N1CCC(Nc2cc3c(-c4ccc(C#N)nc4)nccc3cn2)CC1 [Ex 79, 5-(7-((1-(methylsulfonyl)piperidin-4-yl)amino)-2,6-naphthyridin-1-yl)picolinonitrile]

IC50 (CDK2/CCNE1; >250 nM, read-out: CDK2/CCNE IC50, >250 nM): > 250 nM
Structure (SMILES): CS(=O)(=O)c1ccc(Nc2cc3c(C#Cc4cccnc4O)nccc3cn2)cc1 [Ex 902, 3-((7-((4-(methylsulfonyl)phenyl)amino)-2,6-naphthyridin-1-yl)ethynyl)pyridin-2-ol]

From patent US20260325533A1, “CDK INHIBITOR COMPOUNDS” (ALEKSIA THERAPEUTICS, INC., priority 2023, published 2026)
